Experimental data taken from patent US10722519B2, “Aerosol fluoroquinolone formulations for improved pharmacokinetics” (priority 2008, dated 2020).
≈ marks a conversion by molar mass, not a printed value.

Assays:
[1] = clinical
Procedure: This analysis compares the appearance and elimination of drug following aerosol and intravenous doses to determine the amount of drug remaining in the lung (absorption compartment) over time. To estimate concentrations of drug in lung, amounts were divided by estimates of the epithelial lung fluid (ELF) volume (25 ml) for each subject. Non-compartmental pharmacokinetic analysis was subsequently applied to these projected concentrations of drug in the lung to determine AUCs.

[2] = tested on: P. aeruginosa ATCC 27853; test: MIC, broth microdilution; format: cell-based; conditions: Pseudomonas aeruginosa, ATCC27853, P. aeruginosa ATCC27853
Procedure: (§1) Bacterial strains MIC testing: P. aeruginosa ATCC 27853 and NH57388A were used in these studies. MICs were determined by a broth microdilution assay according to CLSI reference methods (Methods for dilution of antimicrobial susceptibility test for bacteria that grow aerobically. Seventh Edition: Clinical and Laboratory Standards Institute (2006) M&-A7, incorporated by reference in its entirety). Assays were performed in a final volume of 100 μl. The bacterial suspensions were adjusted to yield a cell density of 5×10^5 CFU/ml. Antibiotics were prepared at a concentration equivalent to twofold the highest desired final concentration in culture medium and were then diluted directly into 96-well microtiter plates. Microtiter plates were incubated for 24 h at 35° C. and were read by using a microtiter plate reader (Molecular Devices) at 600 nm as well as by visual observation by using a microtiter plate reading mirror.

[3] = tested on: P. aeruginosa NH57388A; test: MIC, broth microdilution; format: cell-based; conditions: Pseudomonas aeruginosa, NH57388A, P. aeruginosa NIH57388A CF; read-out: MIC
Procedure: as §1

[4] = Mouse lung homogenate pharmacokinetics; conditions: IP, 20 mg/kg normalized to 60 mg/kg
Procedure: Mice were sacrificed at 0.08, 0.16, 0.25, 0.5, 0.75, 1.0, 2.0, 3.0, and 4.0 h after dosing and their lungs collected. […] Analytical standards (0.05 to 100 mg/L) were prepared in fresh mouse lung homogenate collected from untreated animals. […] Aliquots of the supernatant (25 μl) were injected directly onto the HPLC using a temperature-controlled autoinjector set at 10° C. Standard curves were constructed of the peak area versus standard concentration, and the data were fit using weighted linear regression (Microsoft Excel, Seattle, Wash.). […] The lung pharmacokinetic parameters were determined using WinNonlin (Pharsight, Mountain View, Calif.).

[5] = tested on: P. aeruginosa ATCC 27853; test: Acute mouse lung infection model; conditions: mice, 2 doses over 24 h
Procedure: Aerosol Administration of antibiotics: Antibiotics were aerosolized using a microspray aerosol device (MicroSprayer Model IA-C, PennCentury, Philadelphia, Pa.) attached to a FMJ-250 High-Pressure Syringe (PennCentury, Philadelphia, Pa.). […] For administration, each mouse was anesthetized (5% isoflurane in oxygen running at 4 L/min) and positioned securely at a 45-50° angle by the upper teeth, the microspray aerosol tip was inserted to the bifurcation and a 50 μl volume was administered.
The bacterial suspensions were adjusted to approximately 1-6×10^5 CFU/ml by correlation of the absorbance at 600 nm with predetermined plate counts. […] On day 4, mice were infected by intratracheal (IT) instillation of 0.05 ml of inoculum using a curved oral gavage tip attached to a 1 ml syringe. […] Antibiotics were aerosolized using a microspray aerosol device. All infections and aerosol treatments were performed under isoflurane anesthesia (5% isoflurane in oxygen running at 4 L/min). An untreated group of mice (n=8) was sacrificed prior to the initiation of treatment to determine baseline bacterial counts. […] The lungs were removed aseptically and homogenized (Pro200 homogenizer, Pro Scientific, Monroe, Conn.) in 1 ml of sterile saline. Serial 10-fold dilutions of the homogenized lung were plated on Mueller-hinton agar (MHA), and colonies counted.
In addition, due to the need for anesthesia for treatment, the maximum number of daily doses was limited to two.

[6] = tested on: P. aeruginosa NH57388A; test: Chronic mouse lung infection model; format: in vivo; conditions: mice, twice daily for 72 h
Procedure: Bacterial cells were harvested by centrifugation (23,000×g, 30 min, at 4° C.) and resuspended in 3-6 ml of MHB. The supernatant was collected and placed in 80° C. water-bath for 30 min. […] The precipitated alginate was collected with a sterile bacterial loop and washed several times in sterile saline. The purified alginate was then resuspended in 10 ml of sterile saline and stirred vigorously to form a homogeneous suspension. […] The bacterial suspension was diluted (1:10) in the alginate suspension to yield about 10^8 CFU/ml. […] On day 4, the mice were infected using a curved bead-tipped oral gavage attached to a 1 ml syringe while under isoflurane anesthesia.

[7] = Standard kill-curve and in vitro hollow fiber assay; format: cell-based; conditions: high concentrations, 0.018-fold-[…] the MIC evaluated
Text: Fluoroquinolone efficacy in humans, animals and in vitro models of infection is linked to AUC:MIC ratio and Cmax:MIC ratio.

[8] = Sprague-Dawley, rat, in vivo, 10 mg/kg
[9] = in vivo; conditions: Sprague-Dawley, rat, 10 mg/kg
[10] = clinical; conditions: human, in vivo
[11] = serum, 5 minute IV infusion 50 mg, single healthy volunteer

## C[C@H]1COc2c(N3CCN(C)CC3)c(F)cc3c(=O)c(C(=O)O)cn1c23 [Levofloxacin, levofloxacin]
[1]; human, in vivo, iv
  Vd: 135 L
  clearance: 266 mL/min
[1]; [11]
  A: 2.05 mg/L
  B: 0.30 mg/L
  V2: 114.03 L
[2]
  MIC: 1 µg/mL (≈ 2.77 µM)
[3]
  MIC: 2 µg/mL (≈ 5.53 µM)
[4]
  AUC (Normalized to 60 mg/kg): 12.3 mg·h/kg
  Cmax (Normalized to 60 mg/kg): 18.6 mg/kg
[5]; systemic (IP) 32 mg/kg
  reductions in lung bacterial counts: 0.65 log CFU
[5]; systemic (IP) 62.5 mg/kg
  reductions in lung bacterial counts: 2.7 log CFU
[6]; intraperitoneal 15 mg/kg in saline
  log increase in bacterial counts: 0.83 log
[6]; intraperitoneal 30 mg/kg in saline
  log increase in bacterial counts: 0.32 log
[6]; intraperitoneal 60 mg/kg in saline
  log increase in bacterial counts: 0.15 log
[7]
  time to reach maximum levels of killing: 10 to 20 min
[8]
  F, % from Lung vs IV: 97%
[9]; inhaled or intranasal
  CL/F: 47.2 mL/min/kg
  Cmax: 6010 ng/mL
  MRT: 42.6 min
  bioavailability: 97.4%
  half-life: 31.2 min
[9]; iv
  Cmax: 5540 ng/mL
  MRT: 42 min
  half-life: 29.4 min
[10]; iv, 50 mg, Serum AUC(0-inf)
  AUC(0-inf): 3910 ng·h/mL
[10]; iv, 50 mg, Serum Cmax
  Cmax: 2550 ng/mL
[10]; iv, 50 mg, Serum t1/2, IV 50 mg
  half-life: 353 min
[10]; iv, 50 mg, Sputum AUC(0-inf)
  AUC(0-inf): 5700 ng·h/mL
[10]; iv, 50 mg, Sputum Cmax
  Cmax: 1050 ng/mL
[10]; po, 750 mg
  half-life: 402 min
[10]; po, 750 mg, Serum AUC(0-inf)
  AUC(0-inf): 76600 ng·h/mL
[10]; po, 750 mg, Serum Cmax
  Cmax: 7300 ng/mL
[10]; po, 750 mg, Serum t1/2, Oral 750 mg, CF patients
  half-life: 456 min
[10]; po, 750 mg, Sputum AUC(0-inf)
  AUC(0-inf): 93400 ng·h/mL
[10]; po, 750 mg, Sputum Cmax
  Cmax: 8700 ng/mL
